Source: ChEMBL document CHEMBL1201862, “PubChem BioAssay data set” (2004)
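Each compound was tested at five concentrations against cells in 96-well plates for 48 hours. GI50 = concentration required for 50% inhibition of growth.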 The source made the active and inactive calls. No stated cut-off is given here; in the data, active = GI50 up to about 1.1 µM and inactive = higher.

Key:
Assay in all cases: NCI anticancer screen, dose series, 48 h
[1] = system: CCRF-CEM
[2] = system: COLO 205
[3] = system: SF-539
[4] = system: SK-MEL-28
[5] = system: OVCAR-8
[6] = system: HT-29
[7] = system: UO-31
[8] = system: HCT-116
[9] = system: K562
[10] = system: DMS-273
[11] = system: RPMI-8226
[12] = system: SF-295
[13] = system: NCI-H522
[14] = system: HOP-62
[15] = system: DMS-114
[16] = system: SN12C
[17] = system: MOLT-4
[18] = system: IGROV-1
[19] = system: RXF 393

Structure (SMILES)	GI50 [1]	GI50 [2]	GI50 [3]	GI50 [4]	GI50 [5]	GI50 [6]	GI50 [7]	GI50 [8]	GI50 [9]	GI50 [10]	GI50 [11]	GI50 [12]	GI50 [13]	GI50 [14]	GI50 [15]	GI50 [16]	GI50 [17]	GI50 [18]	GI50 [19]
O=C(O)c1cc2c3ccccc3nc-2c[nH]1	> 100 µM (inactive)	> 100 µM (inactive)	> 100 µM (inactive)	> 100 µM (inactive)	> 100 µM (inactive)	> 100 µM (inactive)	> 100 µM (inactive)	> 100 µM (inactive)	> 100 µM (inactive)	> 100 µM (inactive)	> 100 µM (inactive)	> 100 µM (inactive)	> 100 µM (inactive)	> 100 µM (inactive)	> 100 µM (inactive)	> 100 µM (inactive)	> 100 µM (inactive)	> 100 µM (inactive)	> 100 µM (inactive)
Cc1nc2nn(C)cc2c(=O)n1/N=C/c1ccccc1	> 100 µM (inactive)	> 100 µM (inactive)	> 100 µM (inactive)	> 100 µM (inactive)	> 100 µM (inactive)	> 100 µM (inactive)	> 100 µM (inactive)	> 100 µM (inactive)	> 100 µM (inactive)	> 100 µM (inactive)	> 100 µM (inactive)	> 100 µM (inactive)	> 100 µM (inactive)	> 100 µM (inactive)	> 100 µM (inactive)	> 100 µM (inactive)	> 100 µM (inactive)	> 100 µM (inactive)	> 100 µM (inactive)
CCOc1ccc(Nc2nc(C)c(C(=O)/C=C/c3ccc(Cl)cc3Cl)s2)cc1	29.8 µM (inactive)	17.8 µM (inactive)	27.8 µM (inactive)	22.7 µM (inactive)	21.4 µM (inactive)	19.7 µM (inactive)	25.2 µM (inactive)	21.1 µM (inactive)	33.2 µM (inactive)	21.4 µM (inactive)	46.9 µM (inactive)	20 µM (inactive)	21.1 µM (inactive)	31.3 µM (inactive)	24.9 µM (inactive)	19.3 µM (inactive)	23 µM (inactive)	35.5 µM (inactive)	17.7 µM (inactive)
C[C@]12CCC3[C@@H](CC[C@@H]4c5nonc5CC[C@]34C)C1CCC2=O (some centres undefined)	21.8 µM (inactive)	16.9 µM (inactive)	20.4 µM (inactive)	24.7 µM (inactive)	31.7 µM (inactive)	16.5 µM (inactive)	11.3 µM (inactive)	17 µM (inactive)	29.4 µM (inactive)	19.5 µM (inactive)	17 µM (inactive)	24.1 µM (inactive)	16.2 µM (inactive)	40.6 µM (inactive)	20.6 µM (inactive)	21.5 µM (inactive)	23.2 µM (inactive)	40.6 µM (inactive)	26.2 µM (inactive)
COC(=O)C1=C(C(=O)OC)C2(C(=O)OC)OC1(OC)C(C1(C(=O)OC)C(C(=O)OC)=C1C(=O)OC)=C2C(=O)OC (centres undefined)	> 100 µM (inactive)	> 100 µM (inactive)	> 100 µM (inactive)	> 100 µM (inactive)	> 100 µM (inactive)	> 100 µM (inactive)	> 100 µM (inactive)	> 100 µM (inactive)	> 100 µM (inactive)	> 100 µM (inactive)	> 100 µM (inactive)	> 100 µM (inactive)	> 100 µM (inactive)	> 100 µM (inactive)	> 100 µM (inactive)	> 100 µM (inactive)	> 100 µM (inactive)	> 100 µM (inactive)	> 100 µM (inactive)
CN(C)c1cccc(-c2cc(O)c3cc4c(cc3n2)OCO4)c1	0.204 µM (active)	0.2 µM (active)	0.171 µM (active)	0.0553 µM (active)	0.363 µM (active)	0.202 µM (active)	0.667 µM (active)	0.138 µM (active)	0.146 µM (active)	0.203 µM (active)	0.473 µM (active)	0.136 µM (active)	0.0505 µM (active)	0.274 µM (active)	0.236 µM (active)	0.632 µM (active)	0.3 µM (active)	0.625 µM (active)	0.241 µM (active)
